# Measurements from patent publication US12398141B2 (SHANGHAI SYNERGY PHARMACEUTICAL SCIENCES CO., LTD, priority 2019, dated 2025).
# Like-named read-outs stand apart in the source and are kept apart here.
# Tests used:
# Type in all cases: biochemical
# JAK3 = JAK3 (Homo sapiens (Human), UniProt P52333); assay: JAK3 LANCE Ultra kinase assay
# JAK1 = JAK1 (Homo sapiens (Human), UniProt P23458); assay: JAK1 LANCE Ultra kinase assay; conditions: for IC50: 38 uM ATP; for JAK2/JAK1: ratio of IC50 JAK2 to IC50 JAK1
# JAK1, sequence (P23458 whole entry): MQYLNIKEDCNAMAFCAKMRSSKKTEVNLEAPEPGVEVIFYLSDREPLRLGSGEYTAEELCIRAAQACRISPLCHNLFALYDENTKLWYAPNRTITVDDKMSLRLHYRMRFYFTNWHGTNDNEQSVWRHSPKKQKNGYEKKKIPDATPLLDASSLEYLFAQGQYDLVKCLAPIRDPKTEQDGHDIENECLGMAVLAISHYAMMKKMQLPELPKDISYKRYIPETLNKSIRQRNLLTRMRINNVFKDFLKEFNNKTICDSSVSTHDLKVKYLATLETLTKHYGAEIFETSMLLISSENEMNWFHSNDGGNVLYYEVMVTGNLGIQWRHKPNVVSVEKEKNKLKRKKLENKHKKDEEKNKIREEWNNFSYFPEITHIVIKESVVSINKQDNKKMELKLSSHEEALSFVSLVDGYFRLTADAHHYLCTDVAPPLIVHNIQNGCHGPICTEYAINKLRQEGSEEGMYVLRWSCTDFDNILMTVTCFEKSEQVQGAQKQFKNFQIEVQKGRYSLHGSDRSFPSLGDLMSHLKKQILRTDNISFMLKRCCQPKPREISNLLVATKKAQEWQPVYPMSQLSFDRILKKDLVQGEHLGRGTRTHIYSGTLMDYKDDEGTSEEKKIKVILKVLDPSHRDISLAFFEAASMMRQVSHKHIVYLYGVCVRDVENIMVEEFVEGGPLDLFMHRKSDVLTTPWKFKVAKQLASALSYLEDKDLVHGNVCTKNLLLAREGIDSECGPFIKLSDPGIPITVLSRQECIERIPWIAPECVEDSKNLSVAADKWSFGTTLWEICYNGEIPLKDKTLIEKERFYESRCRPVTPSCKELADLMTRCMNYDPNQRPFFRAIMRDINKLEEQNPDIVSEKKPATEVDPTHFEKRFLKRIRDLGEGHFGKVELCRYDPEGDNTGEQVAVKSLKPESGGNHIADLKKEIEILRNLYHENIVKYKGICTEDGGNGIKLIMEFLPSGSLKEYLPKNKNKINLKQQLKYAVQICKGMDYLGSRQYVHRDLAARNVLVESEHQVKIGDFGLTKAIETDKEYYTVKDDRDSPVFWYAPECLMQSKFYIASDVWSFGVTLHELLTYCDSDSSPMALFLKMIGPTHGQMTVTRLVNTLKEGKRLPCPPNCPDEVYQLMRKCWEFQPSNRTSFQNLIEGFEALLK
# Protocol: Inhibition test on activity of JAK kinase in vitro was carried out by the following methods.
# JAK1 LANCE® Ultra assay, JAK2 LANCE® Ultra assay and JAK3 LANCE® Ultra assay were used to carry out the test separately, and kits of the above assays were supplied by PerkinElmer. […]
# JAK1, JAK2 and JAK3 kinase, ATP and substrates were dissolved and diluted with buffers.
# A test liquid was 2 nM Eu-W1024 anti-phosphotyrosine (PerkinElmer, AD0069). A stop buffer was 10 mM edetic acid (Intech, 1842C505).
# 2.5 μl of an 8-fold solution of the compound and 5 μl of a 4-fold solution of JAK1 or JAK2 or JAK3 kinase were added into a 384-well plate, respectively, and reacted for 10 minutes at room temperature. 2.5 μl of an 8-fold solution of ULight™-JAK-1 peptide/ATP was added and reacted for 90 minutes at room temperature. Finally, 5 μl of 4-fold edetic acid stop buffer and 5 μl of 4-fold test liquid of Eu-W1024 anti-phosphotyrosine were added and incubated for 60 minutes.
# According to the formula: percentage of inhibition rate=(maximum value−transform value)/(maximum value−minimum value)×100, inhibition rate of each compound at various concentrations was calculated. The maximum value was the reference value of dimethyl sulfoxide added into the well plate, the minimum value was the blank value, and the transform value is the value obtained by the well of each compound. The IC50 values of the corresponding compounds were then obtained by fitting by using the XLFit fitting tool in excel.
# JAK2 = JAK2 (Homo sapiens (Human), UniProt O60674); assay: JAK2 LANCE Ultra kinase assay; conditions: 12 uM ATP
# JAK2, sequence (O60674 whole entry): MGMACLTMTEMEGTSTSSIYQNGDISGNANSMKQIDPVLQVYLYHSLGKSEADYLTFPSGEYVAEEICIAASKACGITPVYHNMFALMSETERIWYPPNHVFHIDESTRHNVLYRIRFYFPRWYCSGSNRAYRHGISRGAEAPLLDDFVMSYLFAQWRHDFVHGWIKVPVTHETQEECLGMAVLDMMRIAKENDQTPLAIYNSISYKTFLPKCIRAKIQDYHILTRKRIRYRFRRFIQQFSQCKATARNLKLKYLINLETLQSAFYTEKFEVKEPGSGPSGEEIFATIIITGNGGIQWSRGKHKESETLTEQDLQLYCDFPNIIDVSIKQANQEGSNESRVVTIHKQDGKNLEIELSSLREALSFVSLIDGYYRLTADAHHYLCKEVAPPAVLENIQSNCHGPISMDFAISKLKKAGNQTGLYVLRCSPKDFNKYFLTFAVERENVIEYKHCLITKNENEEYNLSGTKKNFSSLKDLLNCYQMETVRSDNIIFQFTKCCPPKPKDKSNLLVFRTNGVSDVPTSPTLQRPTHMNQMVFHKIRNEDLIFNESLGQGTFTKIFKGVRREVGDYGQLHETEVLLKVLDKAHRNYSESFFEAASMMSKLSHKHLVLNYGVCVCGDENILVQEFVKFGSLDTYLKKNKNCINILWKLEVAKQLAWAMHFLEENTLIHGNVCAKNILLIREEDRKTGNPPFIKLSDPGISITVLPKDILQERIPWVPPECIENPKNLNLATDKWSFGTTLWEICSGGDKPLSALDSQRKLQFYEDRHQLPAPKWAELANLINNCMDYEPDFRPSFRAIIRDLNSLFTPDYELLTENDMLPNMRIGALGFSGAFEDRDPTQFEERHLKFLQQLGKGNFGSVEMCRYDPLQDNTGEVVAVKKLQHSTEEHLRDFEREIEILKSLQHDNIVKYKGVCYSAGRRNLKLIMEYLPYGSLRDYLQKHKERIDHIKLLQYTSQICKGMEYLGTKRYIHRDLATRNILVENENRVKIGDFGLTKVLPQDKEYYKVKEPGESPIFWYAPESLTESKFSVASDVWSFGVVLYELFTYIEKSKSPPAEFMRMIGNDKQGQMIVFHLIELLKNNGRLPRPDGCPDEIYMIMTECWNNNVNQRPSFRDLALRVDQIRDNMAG
# JAK3, sequence (P52333 whole entry): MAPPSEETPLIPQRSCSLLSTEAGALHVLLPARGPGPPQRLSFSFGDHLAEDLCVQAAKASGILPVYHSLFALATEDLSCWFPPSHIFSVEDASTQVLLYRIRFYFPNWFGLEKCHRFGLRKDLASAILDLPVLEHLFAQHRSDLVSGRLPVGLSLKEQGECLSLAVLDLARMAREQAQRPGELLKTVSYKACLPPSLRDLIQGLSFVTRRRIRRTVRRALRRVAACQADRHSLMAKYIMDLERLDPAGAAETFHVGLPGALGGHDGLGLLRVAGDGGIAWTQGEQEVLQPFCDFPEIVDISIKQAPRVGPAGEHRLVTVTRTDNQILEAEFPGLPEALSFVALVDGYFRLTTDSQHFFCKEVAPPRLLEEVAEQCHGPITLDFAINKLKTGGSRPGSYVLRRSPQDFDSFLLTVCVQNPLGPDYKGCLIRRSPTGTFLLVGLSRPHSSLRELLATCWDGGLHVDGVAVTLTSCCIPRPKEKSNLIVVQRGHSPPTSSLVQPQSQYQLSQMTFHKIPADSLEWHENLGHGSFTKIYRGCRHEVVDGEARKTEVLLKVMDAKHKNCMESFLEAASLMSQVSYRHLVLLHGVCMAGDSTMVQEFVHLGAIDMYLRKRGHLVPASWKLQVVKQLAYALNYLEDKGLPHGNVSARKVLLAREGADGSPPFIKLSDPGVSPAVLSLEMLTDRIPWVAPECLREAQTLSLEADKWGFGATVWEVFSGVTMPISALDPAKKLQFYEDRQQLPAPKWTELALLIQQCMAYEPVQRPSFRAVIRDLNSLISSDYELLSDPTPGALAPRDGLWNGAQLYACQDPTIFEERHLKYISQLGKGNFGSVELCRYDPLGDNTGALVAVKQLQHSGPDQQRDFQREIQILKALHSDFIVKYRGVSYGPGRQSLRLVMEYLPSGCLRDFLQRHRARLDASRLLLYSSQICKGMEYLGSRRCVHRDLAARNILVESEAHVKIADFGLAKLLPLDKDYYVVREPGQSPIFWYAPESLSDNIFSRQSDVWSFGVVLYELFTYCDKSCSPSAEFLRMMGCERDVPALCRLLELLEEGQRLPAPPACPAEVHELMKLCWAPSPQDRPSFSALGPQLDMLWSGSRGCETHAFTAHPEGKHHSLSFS
SMILES,IC50 (JAK3; 4 uM ATP) [nM],IC50 (JAK1) [nM],JAK2/JAK1 (JAK1),IC50 (JAK2) [nM],IC50 (JAK3) [nM]
"CN(c1c(C#N)cnc2[nH]ccc12)[C@H]1C[C@@H]2CN(C(=O)Nc3nc(C(C)(C)C)ns3)C[C@@H]2C1 [Compound H21, (3aR,5s,6aS)-4-({2-[(3-tert-butyl-1,2,4-thiadiazole-5-yl)carbamoyl]-hexahydrocyclopenta [c]pyrrole-5-yl}-methyl-amino)-1H-pyrrolo[2,3-b]pyridin-5-carbonitrile]",223,9.4,15.40,46,–
"C[C@@H]1CN(S(=O)(=O)C[C@H]2CC[C@H](N(C)c3c(C#N)cnc4[nH]ccc34)CC2)C[C@H]1CO (relative stereo) [Compound H66, 4-((trans-4-(((trans-3-(hydroxymethyl)-4-methylpyrrolidin-1-yl)sulfonyl)methyl)cyclohexyl)(methyl)amino)-1H-pyrrolo[2,3-b]pyridin-5-carbonitrile]",197,8.9,14.16,126,–
"CC[C@@H]1CN(C(=O)CCC#N)C[C@@H]1Nc1c(C#N)cnc2[nH]ccc12 (relative stereo) [Compound H81, 4-(((cis)-1-(3-cyanopropionyl)-4-ethylpyrrolidin-3-yl)amino)-1H-pyrrolo[2,3-b]pyridin-5-carbonitrile]",162,9.3,12.58,117,–
"C[C@@H]1CN(C(=O)CC#N)C[C@@H]1N(C)c1c(C#N)cnc2[nH]ccc12 (relative stereo) [Compound H05, (cis)-4-{[4-methyl-1-(2-cyanoacetyl)pyrrolidin-3-yl]-methyl-amino}-1H-pyrrolo[2,3-b]pyridin-5-carbonitrile]",256,7.86,1.56,12.3,–
"CC[C@@H]1CN(S(=O)(=O)CCC(F)(F)F)C[C@@H]1Nc1c(C#N)cnc2[nH]ccc12 (relative stereo) [Compound H76, 4-(((cis)-4-ethyl-1-((3,3,3-trifluoropropyl)sulfonyl)pyrrolidin-3-yl)amino)-1H-pyrrolo[2,3-b]pyridin-5-carbonitrile]",91,0.95,8.21,7.8,–
"CC[C@@H]1CN(C(=O)NC2CC2)C[C@@H]1Nc1c(C#N)cnc2[nH]ccc12 (relative stereo) [Compound H84, (cis)-3-((5-cyano-1H-pyrrolo[2,3-b]pyridin-4-yl)amino)-N-cyclopropyl-4-ethylpyrrolidin-1-carboxamide]",387,6.9,5.51,38,–
"C[C@H](O)C(=O)N1C[C@H]2C[C@@H](N(C)c3c(C#N)cnc4[nH]ccc34)C[C@H]2C1 [Compound H06, (3aR,5R,6aS)-4-{[2-((2S)-2-hydroxypropionyl)-hexahydrocyclopenta[c]pyrrole-5-yl]-methyl-amino}-1H-pyrrolo[2,3-b]pyridin-5-carbonitrile]",96,6.68,–,29.9,–
"CN(c1c(C#N)cnc2[nH]ccc12)[C@H]1C[C@@H](NS(=O)(=O)CCC(F)(F)F)C1 [Compound H10, 4-{[3-(3,3,3-trifluoropropanesulfonamido)-cyclobutyl-1-yl]-methyl-amino}-1H-pyrrolo[2,3-b]pyridin-5-carbonitrile]",143,4.98,–,36,–
CC[C@@H]1CN(C(=O)NC(C)C)C[C@@H]1Nc1c(C#N)cnc2[nH]ccc12 (relative stereo) [Compound H75],–,–,–,17.3,89
"N#Cc1cnc2[nH]ccc2c1N[C@H]1C[C@@H]2CN(C(=O)Nc3nc(C4CC4)ns3)C[C@@H]2C1 [Compound H49, (3aR,5s,6aS)-5-((5-cyano-1H-pyrrolo[2,3-b]pyridin-4-yl)amino)-N-(3-cyclopropyl-1,2,4-thiadiazole-5-yl)hexahydrocyclopentadiene[c]pyrrole-2(1H)-carboxamide]",178,5.43,2.76,15,–
"CN(c1c(C#N)cnc2[nH]ccc12)[C@H]1CC[C@H](CS(=O)(=O)N2CCC(CO)C2)CC1 (stereo partly drawn) [Compound H69, 4-((trans-4-(((3-(hydroxymethyl)pyrrolidin-1-yl)sulfonyl)methyl)cyclohexyl)(methyl)amino)-1H-pyrrolo[2,3-b]pyridin-5-carbonitrile]",90,0.81,9.01,7.3,–
"CC[C@@H]1CC(NC(=O)Nc2nc(OC)ns2)C[C@@H]1Nc1c(C#N)cnc2[nH]ccc12 (stereo partly drawn) [Compound H61, 1-((3S,4R)-3-((5-cyano-1H-pyrrolo[2,3-b]pyridin-4-yl)amino)-4-ethylcyclopentyl)-3-(3-methoxy-1,2,4-thiadiazole-5-yl)urea]",589,8.23,15.31,126,–
"CC[C@@H]1CN(C(=O)NCC(C)(F)F)C[C@@H]1Nc1c(C#N)cnc2[nH]ccc12 (relative stereo) [Compound H89, (cis)-3-((5-cyano-1H-pyrrolo[2,3-b]pyridin-4-yl)amino)-N-(2,2-difluoropropyl)-4-ethylpyrrolidin-1-carboxamide]",241,2.9,6.79,19.7,–
"COc1nsc(NC(=O)N2C[C@H]3C[C@H](Nc4c(C#N)cnc5[nH]ccc45)C[C@H]3C2)n1 [Compound H20, (3aR,5s,6aS)-5-((5-cyano-1H-pyrrolo[2,3-b]pyridin-4-yl)amino)-N-(3-methoxy-1,2,4-thiadiazole-5-yl)hexahydrocyclopentadiene[c]pyrrole-2(1H)-carboxamide]",161,5.8,–,36,–
CN(c1c(C#N)cnc2[nH]ccc12)[C@H]1C[C@@H]2CN(S(=O)(=O)CCC(F)(F)F)C[C@@H]2C1 [Compound H27],171,5.6,5.89,33,–

# Now from value to molecule, other results behind:
IC50 (JAK3; 4 uM ATP) [nM],IC50 (JAK1) [nM],JAK2/JAK1 (JAK1),IC50 (JAK2) [nM],SMILES,IC50 (JAK3) [nM]
27,5,2.60,13,"N#Cc1cnc2[nH]ccc2c1N[C@H]1C[C@@H](NS(=O)(=O)c2ccc(C(F)(F)F)cc2)C1 [Compound H17, (cis)-4-{[3-(4-trifluoromethylbenzenesulfonamido)-cyclobutyl-1-yl]-amino}-1H-pyrrolo[2,3-b]pyridin-5-carbonitrile]",–
70,1.13,8.67,9.8,CN(c1c(C#N)cnc2[nH]ccc12)[C@@H]1CC[C@H](CS(=O)(=O)N2CCC(CO)C2)C1 (some centres unmarked) [Compound H71],–
64,1.42,5.14,7.3,"CN1CCN(S(=O)(=O)C[C@H]2CC[C@H](N(C)c3c(C#N)cnc4[nH]ccc34)CC2)CC1 [Compound H63, Trans-4-(methyl((1r,4r)-4-(((4-methylpiperazin-1-yl)sulfonyl)methyl)cyclohexyl)amino)-1H-pyrrolo[2,3-b]pyridin-5-carbonitrile]",–
79,0.64,11.09,7.1,"CC[C@@H]1CN(C(=O)NCC#N)C[C@@H]1Nc1c(C(F)(F)F)cnc2[nH]ccc12 [Compound H93, (cis)-3-ethyl-N-(cyanmethyl)-4-((5-(trifluoromethyl)-1H-pyrrolo[2,3-b]pyridin-4-yl)amino)pyrrolidin-1-carboxamide]",–
39.6,2.06,5.63,11.6,"CC[C@@H]1CC(NC(=O)CCC(F)(F)F)C[C@@H]1Nc1c(C#N)cnc2[nH]ccc12 (stereo in doubt) [Compound H59, N-(3-((5-cyano-1H-pyrrolo[2,3-b]pyridin-4-yl)amino)-4-ethylcyclopentyl)-4,4,4-trifluorobutanamide]",–
56,0.86,8.60,7.4,"CCOc1nc(NC(=O)N2C[C@H]3C[C@H](N(C)c4c(C#N)cnc5[nH]ccc45)C[C@H]3C2)no1 [Compound H48, (3aR,5s,6aS)-5-((5-cyano-1H-pyrrolo[2,3-b]pyridin-4-yl)(methyl)amino)-N-(5-ethoxy-1,2,4-oxadiazole-3-yl)hexahydrocyclopentadiene[c]pyrrole-2(1H)-carboxamide]",–
27,5,2.60,13,"CN(c1c(C#N)cnc2[nH]ccc12)[C@H]1C[C@@H]2CN(C(=O)Nc3nc(C4CC4)no3)C[C@@H]2C1 [Compound H32, (3aR,5s,6aS)-4-({2-[(3-cyclopropyl-1,2,4-oxadiazole-5-yl)carbamoyl]-hexahydrocyclopenta[c]pyrrole-5-yl}-methyl-amino)-1H-pyrrolo[2,3-b]pyridin-5-carbonitrile]",–
